In brackets after ≈: the same amount, converted by molar mass.
Legend:
physchem = conditions: pH 7, water
[1] = Visual comparison of carfilzomib in water, cyclodextrin and cyclodextrin-free formulations (FIG. 2); format: physicochemical; conditions: CFZ-API concentration of 2 mg/mL
Description: Carfilzomib (CFZ) is a proteasomal inhibitor and active ingredient of KYPROLIS®, a lyophilized drug product which is for the treatment of multiple myeloma. The current commercial formulation of KYPROLIS contains CAPTISOL®, which is a cyclodextrin used to help solubility the CFZ-API. The present invention provides a stable, cyclodextrin-free formulations for CFZ-API in an aqueous solution which is suitable for injection. FIG. 2 illustrates (a) insoluble CFZ-API in water (b) current commercial KYPROLIS formulation containing CAPTISOL (middle vial); and (c) the cyclodextrin free chlorobutanol formulation of the invention (right vial). Each sample contains CFZ-API concentration of 2 mg/mL.

For `CC(C)C[C@H](NC(=O)[C@H](CCc1ccccc1)NC(=O)CN1CCOCC1)C(=O)N[C@@H](Cc1ccccc1)C(=O)N[C@@H](CC(C)C)C(=O)[C@@]1(C)CO1` [CFZ-API, Carfilzomib], the solubility (physchem) was 2 µg/mL (≈ 2.78 µM) and the “Visual solubility in water” value [1] was “insoluble”.

— patent US20250345384A1, “STABLE CYCLODEXTRIN FREE CARFILZOMIB FORMULATION” (AMGEN INC., priority 2020, published 2025)
